# Assay results as given in US9040527B2, “Pyrimidinediamine kinase inhibitors” (Rigel Pharmaceuticals, Inc., priority 2008, dated 2015).
# How the values were obtained:
# [1] = target: T1, PLK1 (Homo sapiens, UniProt P53350); test: In vitro PLK1 ELISA assay (biochemical); parameters: purchased Cell Signalling 7728
# Outline: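 Commercial PLK1 phosphorylates neutravidin-captured biotinylated CHK2 peptide for 45 min at room temperature in HEPES pH 7.2 with Mg2+/Mn2+/DTT, compounds at 10 μM to 0.005 μM. Phospho-CHK2(T68) antibody plus HRP secondary gives chemiluminescent read-out used for IC50.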
# [2] = target: T1, PLK1; test: Cellular PLK1 assay in K562 cells overexpressing CDC25C; type: cell-based; parameters: endogenous in cells; host or cells: K562 (human chronic myelogenous leukemia) overexpressing CDC25C, nocodazole-arrested; settings: nocodazole arrested, cdc25c p-Ser198 readout
# Outline: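 K562 cells overexpressing CDC25C were arrested with 333 nM nocodazole for 18 h at 37 °C, then exposed to compound at 8 points from 10 μM to 0.005 μM in duplicate for 120 min. After fixation and permeabilization, cells were stained for cdc25c pSer198 with a PE secondary and read by flow cytometry, 10,000 cells per well.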
# [3] = ELISA, CHK2-derived peptide substrate, read-out: PLK1 IC50 (μM) biochemical assay
# [4] = read-out: IC50 in biochemical ELISA assay (less than 0.01 μM)
# [5] = read-out: IC50 in biochemical in vitro PLK1 ELISA assay (less than 10 μM)
# T1 sequence (P53350 whole entry): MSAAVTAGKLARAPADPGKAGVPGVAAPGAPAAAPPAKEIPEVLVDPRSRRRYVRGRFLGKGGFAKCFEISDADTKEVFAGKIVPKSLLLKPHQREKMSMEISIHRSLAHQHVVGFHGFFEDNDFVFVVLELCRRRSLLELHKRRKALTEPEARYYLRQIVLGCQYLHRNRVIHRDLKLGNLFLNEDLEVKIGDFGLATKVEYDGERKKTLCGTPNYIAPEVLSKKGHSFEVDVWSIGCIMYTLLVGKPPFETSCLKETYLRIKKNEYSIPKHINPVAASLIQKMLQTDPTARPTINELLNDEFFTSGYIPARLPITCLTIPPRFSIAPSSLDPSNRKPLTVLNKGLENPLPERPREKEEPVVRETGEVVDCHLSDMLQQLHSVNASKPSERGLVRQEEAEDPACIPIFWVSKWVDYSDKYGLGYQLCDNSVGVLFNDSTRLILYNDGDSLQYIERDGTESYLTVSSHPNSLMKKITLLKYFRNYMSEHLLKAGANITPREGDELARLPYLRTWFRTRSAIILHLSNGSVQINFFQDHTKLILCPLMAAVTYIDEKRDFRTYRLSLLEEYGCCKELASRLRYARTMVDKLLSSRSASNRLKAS
Compound,"IC50 [1, 3] [µM]","IC50 [1, 4] [µM]","IC50 [1, 5] [µM]",IC50 [2] [µM]
"CN1CCN(c2cc(Nc3ncc(F)c(Nc4ccc5c(n4)NC(=O)CO5)n3)cc(C3CC3)c2)CC1 [compound 50, 6-(2-(3-cyclopropyl-5-(4-methylpiperazin-1-yl)phenylamino)-5-fluoro-pyrimidin-4-ylamino)-2H-pyrido[3,2-b][1,4]oxazin-3(4H)-one]",< 0.5,< 0.01,< 10,< 0.5
"Cc1cnc(Nc2cccc(N3CCN(C)CC3)c2)nc1Nc1ccc2c(n1)NC(=O)CO2 [compound 51, 6-(5-methyl-2-(3-(4-methylpiperazin-1-yl)phenylamino)pyrimidin-4-ylamino)-2H-pyrido[3,2-b][1,4]oxazin-3(4H)-one]",< 0.5,< 0.01,< 10,0.5 to 5
"COc1cnc(Nc2cccc(N3CCN(C)CC3)c2)nc1Nc1ccc2c(n1)NCCO2 [compound 52, N4-(3,4-dihydro-2H-pyrido[3,2-b][1,4]oxazin-6-yl)-5-methoxy-N2-(3-(4-methylpiperazin-1-yl)phenyl)pyrimidine-2,4-diamine]",< 0.5,,< 10,0.5 to 5
"CN1CCN(c2cccc(Nc3ncc(F)c(N(CC4CC4)c4ccc5c(n4)NCCO5)n3)c2)CC1 [compound 53, N4-(cyclopropylmethyl)-N4-(3,4-dihydro-2H-pyrido[3,2-b][1,4]oxazin-6-yl)-5-fluoro-N2-(3-(4-methylpiperazin-1-yl)phenyl)pyrimidine-2,4-diamine]",0.5 to 5,,< 10,≥ 10
"CN1CCN(c2cccc(Nc3ncc(F)c(N(c4ccc5c(n4)NCCO5)C4CCCC4)n3)c2)CC1 [compound 54, N4-cyclopentyl-N4-(3,4-dihydro-2H-pyrido[3,2-b][1,4]oxazin-6-yl)-5-fluoro-N2-(3-(4-methylpiperazin-1-yl)phenyl)pyrimidine-2,4-diamine]",5 to 10,,< 10,≥ 10
"CN1CCN(c2cccc(Nc3ncc(C(F)(F)F)c(Nc4ccc5c(n4)NCCO5)n3)c2)CC1 [compound 55, N4-(3,4-dihydro-2H-pyrido[3,2-b][1,4]oxazin-6-yl)-N2-(3-(4-methyl-piperazin-1-yl)phenyl)-5-(trifluoro-methyl)pyrimidine-2,4-diamine]",< 0.5,< 0.01,< 10,< 0.5
"COc1cnc(Nc2cccc(N3CCN(C)CC3)c2)nc1Nc1ccc2c(n1)NC(=O)CO2 [compound 56, 6-(5-methoxy-2-(3-(4-methylpiperazin-1-yl)phenylamino)pyrimidin-4-ylamino)-2H-pyrido[3,2-b][1,4]oxazin-3(4H)-one]",< 0.5,,< 10,≥ 10
"Cc1cc(Nc2ncc(C)c(Nc3ccc4c(n3)N(C)C(=O)CO4)n2)ccc1N1CCN(C)CC1 [compound 95, 4-methyl-6-(5-methyl-2-(3-methyl-4-(4-methylpiperazin-1-yl)phenylamino)pyrimidin-4-ylamino)-2H-pyrido[3,2-b][1,4]oxazin-3(4H)-one]",0.5 to 5,,< 10,≥ 10
"Cc1cc(Nc2ncc(C)c(Nc3ccc4c(n3)NC(=O)C(C)(C)O4)n2)ccc1N1CCN(C)CC1 [compound 96, 2,2-dimethyl-6-(5-methyl-2-(3-methyl-4-(4-methylpiperazin-1-yl)phenylamino)pyrimidin-4-ylamino)-2H-pyrido[3,2-b][1,4]oxazin-3(4H)-one]",5 to 10,,< 10,≥ 10
"CCCN1C(=O)COc2ccc(Nc3nc(Nc4ccc(N5CCN(C)CC5)c(C)c4)ncc3C)nc21 [compound 97, 6-(5-methyl-2-(3-methyl-4-(4-methylpiperazin-1-yl)phenylamino)pyrimidin-4-ylamino)-4-propyl-2H-pyrido[3,2-b][1,4]oxazin-3(4H)-one]",< 0.5,,< 10,0.5 to 5
"CCN1C(=O)COc2ccc(Nc3nc(Nc4ccc(N5CCN(C)CC5)nc4)ncc3C)nc21 [compound 101, 4-ethyl-6-(5-methyl-2-(6-(4-methylpiperazin-1-yl)pyridin-3-ylamino)pyrimidin-4-ylamino)-2H-pyrido[3,2-b][1,4]oxazin-3(4H)-one]",< 0.5,,< 10,0.5 to 5
"CCCN1C(=O)COc2ccc(Nc3nc(Nc4ccc(N5CC6CC5CN6C)c(C)c4)ncc3C)nc21 (stereo not shown) [compound 107, 6-(5-methyl-2-(3-methyl-4-(5-methyl-2,5-diazabicyclo[2.2.1]heptan-2-yl)phenylamino)pyrimidin-4-ylamino)-4-propyl-2H-pyrido[3,2-b][1,4]oxazin-3(4H)-one]",< 0.5,,< 10,0.5 to 5
"CN1CCN(c2cccc(Nc3ncc(F)c(Nc4ccc5c(n4)N(CC4CC4)C(=O)CO5)n3)c2)CC1 [compound 108, 4-(cyclopropylmethyl)-6-(5-fluoro-2-(3-(4-methylpiperazin-1-yl)phenylamino)pyrimidin-4-ylamino)-2H-pyrido[3,2-b][1,4]oxazin-3(4H)-one]",< 0.5,,< 10,0.5 to 5
"CN1CCN(c2cccc(Nc3ncc(F)c(Nc4ccc5c(n4)N(CC4CCC4)C(=O)CO5)n3)c2)CC1 [compound 109, 4-(cyclobutylmethyl)-6-(5-fluoro-2-(3-(4-methylpiperazin-1-yl)phenylamino)pyrimidin-4-ylamino)-2H-pyrido[3,2-b][1,4]oxazin-3(4H)-one]",< 0.5,,< 10,0.5 to 5
"CN1CCN(c2cccc(Nc3ncc(F)c(Nc4ccc5c(n4)N(CC4CCCCC4)C(=O)CO5)n3)c2)CC1 [compound 110, 4-(cyclohexylmethyl)-6-(5-fluoro-2-(3-(4-methylpiperazin-1-yl)phenylamino)pyrimidin-4-ylamino)-2H-pyrido[3,2-b][1,4]oxazin-3(4H)-one]",5 to 10,,< 10,≥ 10
"Cc1cc(Nc2ncc(F)c(Nc3ccc4c(n3)N(CC3CCC3)C(=O)CO4)n2)ccc1N1CCN(C)CC1 [compound 112, 4-(cyclobutylmethyl)-6-(5-fluoro-2-(3-methyl-4-(4-methylpiperazin-1-yl)phenylamino)pyrimidin-4-ylamino)-2H-pyrido[3,2-b][1,4]oxazin-3(4H)-one]",≥ 10,,,≥ 10
"Cc1cc(Nc2ncc(F)c(Nc3ccc4c(n3)N(CC3CCCCC3)C(=O)CO4)n2)ccc1N1CCN(C)CC1 [compound 113, 4-(cyclohexylmethyl)-6-(5-fluoro-2-(3-methyl-4-(4-methylpiperazin-1-yl)phenylamino)pyrimidin-4-ylamino)-2H-pyrido[3,2-b][1,4]oxazin-3(4H)-one]",≥ 10,,,≥ 10
"Cc1cc(Nc2ncc(C)c(Nc3ccc4c(n3)N(CC3CC3)C(=O)CO4)n2)ccc1N1CCN(C)CC1 [compound 114, 4-(cyclopropylmethyl)-6-(5-methyl-2-(3-methyl-4-(4-methyl-piperazin-1-yl)phenylamino)pyrimidin-4-ylamino)-2H-pyrido[3,2-b][1,4]oxazin-3(4H)-one]",0.5 to 5,,< 10,≥ 10
"Cc1cc(Nc2ncc(C)c(Nc3ccc4c(n3)N(CC3CCC3)C(=O)CO4)n2)ccc1N1CCN(C)CC1 [compound 115, 4-(cyclobutylmethyl)-6-(5-methyl-2-(3-methyl-4-(4-methylpiperazin-1-yl)phenylamino)pyrimidin-4-ylamino)-2H-pyrido[3,2-b][1,4]oxazin-3(4H)-one]",0.5 to 5,,< 10,≥ 10
"Cc1cnc(Nc2cccc(N3CCN(C)CC3)c2)nc1Nc1ccc2c(n1)N(C1CCCC1)C(=O)CO2 [compound 116, 4-cyclopentyl-6-(5-methyl-2-(3-(4-methylpiperazin-1-yl)phenylamino)pyrimidin-4-ylamino)-2H-pyrido[3,2-b][1,4]oxazin-3(4H)-one]",0.5 to 5,,< 10,≥ 10
"Cc1cc(Nc2ncc(C)c(Nc3ccc4c(n3)N(C3CCCC3)C(=O)CO4)n2)ccc1N1CCN(C)CC1 [compound 117, 4-cyclopentyl-6-(5-methyl-2-(3-methyl-4-(4-methylpiperazin-1-yl)phenylamino)pyrimidin-4-ylamino)-2H-pyrido[3,2-b][1,4]oxazin-3(4H)-one]",≥ 10,,,≥ 10
"Cc1cc(Nc2ncc(F)c(Nc3ccc4c(n3)N(Cc3ccccc3)C(=O)CO4)n2)ccc1N1CCN(C)CC1 [compound 118, 4-benzyl-6-(5-fluoro-2-(3-methyl-4-(4-methylpiperazin-1-yl)phenylamino)pyrimidin-4-ylamino)-2H-pyrido[3,2-b][1,4]oxazin-3(4H)-one]",≥ 10,,,0.5 to 5
"Cc1cc(Nc2ncc(C)c(Nc3ccc4c(n3)N(CC3CCCCC3)C(=O)CO4)n2)ccc1N1CCN(C)CC1 [compound 119, 4-(cyclohexylmethyl)-6-(5-methyl-2-(3-methyl-4-(4-methylpiperazin-1-yl)phenylamino)pyrimidin-4-ylamino)-2H-pyrido[3,2-b][1,4]oxazin-3(4H)-one]",≥ 10,,,≥ 10
"CN1CCN(c2cccc(Nc3ncc(F)c(Nc4ccc5c(n4)N(Cc4ccccc4)C(=O)CO5)n3)c2)CC1 [compound 120, 4-benzyl-6-(5-fluoro-2-(3-(4-methylpiperazin-1-yl)phenylamino)pyrimidin-4-ylamino)-2H-pyrido[3,2-b][1,4]oxazin-3(4H)-one]",0.5 to 5,,< 10,0.5 to 5
